From the NIST ThermoML archive (doi:10.1016/j.tca.2009.07.006)

Columns and labels:
[1] = xn = mol fraction of the nth substance listed; details: 101 kPa, Liquid
[2] = molar heat capacity at constant pressure; xn = mol fraction of the nth substance listed; details: 101 kPa, Liquid, Small sample (50 mg) DSC

CCOS(=O)(=O)[O-].CCn1cc[n+](C)c1 [1-ethyl-3-methylimidazolium ethyl sulfate] + O
Details | electrical conductivity, x1 = 0.2 [S/m] | electrical conductivity, x1 = 0.4 [S/m] | electrical conductivity, x1 = 0.6 [S/m] | electrical conductivity, x1 = 0.8 [S/m] | molar heat capacity at constant pressure, x1 = 0.2 [J/K/mol] | molar heat capacity at constant pressure, x1 = 0.4 [J/K/mol] | molar heat capacity at constant pressure, x1 = 0.6 [J/K/mol] | molar heat capacity at constant pressure, x1 = 0.8 [J/K/mol]
[1], 293.2 K | 2.17 | 1.23 | 0.74 | 0.466 | – | – | – | –
[1], 298.2 K | 2.53 | 1.44 | 0.881 | 0.569 | – | – | – | –
[1], 303.2 K | 2.95 | 1.695 | 1.05 | 0.696 | – | – | – | –
[1], 308.2 K | 3.387 | 1.95 | 1.25 | 0.837 | – | – | – | –
[1], 313.2 K | 3.85 | 2.243 | 1.45 | 0.991 | – | – | – | –
[1], 318.2 K | 4.34 | 2.563 | 1.67 | 1.159 | – | – | – | –
[1], 323.2 K | 4.86 | 2.9 | 1.91 | 1.342 | – | – | – | –
[1], 328.2 K | 5.4 | 3.257 | 2.15 | 1.54 | – | – | – | –
[1], 333.2 K | 5.93 | 3.617 | 2.41 | 1.746 | – | – | – | –
[1], 338.2 K | 6.5 | 3.997 | 2.69 | 1.94 | – | – | – | –
[1], 343.2 K | 7.07 | 4.393 | 2.99 | 2.173 | – | – | – | –
[1], 348.2 K | 7.64 | 4.793 | 3.28 | 2.417 | – | – | – | –
[1], 353.2 K | 8.24 | 5.207 | 3.62 | 2.673 | – | – | – | –
[2], 303.2 K | – | – | – | – | 146.4 | 218.8 | 290 | 359.1
[2], 308.2 K | – | – | – | – | 147.5 | 220.3 | 291.4 | 360.8
[2], 313.2 K | – | – | – | – | 148.7 | 221.6 | 292.8 | 362.3
[2], 318.2 K | – | – | – | – | 149.5 | 223.1 | 294.4 | 364
[2], 323.2 K | – | – | – | – | 150.8 | 224.7 | 295.9 | 365.7
[2], 328.2 K | – | – | – | – | 151.9 | 226.1 | 297.5 | 367.5
[2], 333.2 K | – | – | – | – | 153.2 | 227.8 | 298.9 | 369.3
[2], 338.2 K | – | – | – | – | 154.7 | 229.4 | 300.6 | 371.5
[2], 343.2 K | – | – | – | – | 155.9 | 231 | 302.2 | 373.2
[2], 348.2 K | – | – | – | – | 157.2 | 232.8 | 304 | 375.5
[2], 353.2 K | – | – | – | – | 158.4 | 234.6 | 305.8 | 377.5

CCn1cc[n+](C)c1.O=S(=O)([O-])C(F)(F)F [1-ethyl-3-methylimidazolium trifluoromethanesulfonate] + O
Details | electrical conductivity, [1] [S/m] | molar heat capacity at constant pressure, [2] [J/K/mol]
293.2 K, x1 = 0.2 | 3.437 | –
293.2 K, x1 = 0.4 | 2.35 | –
293.2 K, x1 = 0.6 | 1.64 | –
293.2 K, x1 = 0.8 | 1.17 | –
298.2 K, x1 = 0.2 | 3.927 | –
298.2 K, x1 = 0.4 | 2.67 | –
298.2 K, x1 = 0.6 | 1.86 | –
298.2 K, x1 = 0.8 | 1.34 | –
303.2 K, x1 = 0.1 | – | 102.6
303.2 K, x1 = 0.2 | 4.47 | 133.3
303.2 K, x1 = 0.4 | 3.05 | 197.5
303.2 K, x1 = 0.6 | 2.12 | 260.1
303.2 K, x1 = 0.8 | 1.56 | 320.1
303.2 K, x1 = 0.9 | – | 351
308.2 K, x1 = 0.1 | – | 103
308.2 K, x1 = 0.2 | 5.037 | 134.1
308.2 K, x1 = 0.4 | 3.46 | 198.7
308.2 K, x1 = 0.6 | 2.42 | 261.6
308.2 K, x1 = 0.8 | 1.79 | 321.9
308.2 K, x1 = 0.9 | – | 352.7
313.2 K, x1 = 0.1 | – | 103.4
313.2 K, x1 = 0.2 | 5.613 | 134.7
313.2 K, x1 = 0.4 | 3.87 | 199.9
313.2 K, x1 = 0.6 | 2.73 | 263.2
313.2 K, x1 = 0.8 | 2.01 | 323.7
313.2 K, x1 = 0.9 | – | 354.8
318.2 K, x1 = 0.1 | – | 103.8
318.2 K, x1 = 0.2 | 6.213 | 135.5
318.2 K, x1 = 0.4 | 4.31 | 201.3
318.2 K, x1 = 0.6 | 3.047 | 264.5
318.2 K, x1 = 0.8 | 2.27 | 325.4
318.2 K, x1 = 0.9 | – | 356.7
323.2 K, x1 = 0.1 | – | 104.3
323.2 K, x1 = 0.2 | 6.837 | 136.4
323.2 K, x1 = 0.4 | 4.77 | 202.4
323.2 K, x1 = 0.6 | 3.393 | 266
323.2 K, x1 = 0.8 | 2.55 | 327.3
323.2 K, x1 = 0.9 | – | 358.4
328.2 K, x1 = 0.1 | – | 105
328.2 K, x1 = 0.2 | 7.47 | 137.1
328.2 K, x1 = 0.4 | 5.24 | 203.8
328.2 K, x1 = 0.6 | 3.757 | 267.6
328.2 K, x1 = 0.8 | 2.84 | 329.1
328.2 K, x1 = 0.9 | – | 360.2
333.2 K, x1 = 0.1 | – | 105.5
333.2 K, x1 = 0.2 | 8.113 | 138
333.2 K, x1 = 0.4 | 5.72 | 205.2
333.2 K, x1 = 0.6 | 4.127 | 269.1
333.2 K, x1 = 0.8 | 3.14 | 331.1
333.2 K, x1 = 0.9 | – | 362
338.2 K, x1 = 0.1 | – | 106.1
338.2 K, x1 = 0.2 | 8.76 | 138.8
338.2 K, x1 = 0.4 | 6.22 | 206.4
338.2 K, x1 = 0.6 | 4.513 | 270.9
338.2 K, x1 = 0.8 | 3.46 | 332.7
338.2 K, x1 = 0.9 | – | 364
343.2 K, x1 = 0.1 | – | 106.4
343.2 K, x1 = 0.2 | 9.413 | 139.8
343.2 K, x1 = 0.4 | 6.71 | 207.7
343.2 K, x1 = 0.6 | 4.903 | 272.3
343.2 K, x1 = 0.8 | 3.78 | 334.6
343.2 K, x1 = 0.9 | – | 365.9
348.2 K, x1 = 0.1 | – | 107
348.2 K, x1 = 0.2 | 10.05 | 140.6
348.2 K, x1 = 0.4 | 7.22 | 208.9
348.2 K, x1 = 0.6 | 5.307 | 273.8
348.2 K, x1 = 0.8 | 4.13 | 336.4
348.2 K, x1 = 0.9 | – | 368
353.2 K, x1 = 0.1 | – | 107.5
353.2 K, x1 = 0.2 | 10.71 | 141.5
353.2 K, x1 = 0.4 | 7.75 | 210.1
353.2 K, x1 = 0.6 | 5.743 | 275.5
353.2 K, x1 = 0.8 | 4.48 | 338.2
353.2 K, x1 = 0.9 | – | 369.8
